Test results reported in article PMC3809513, “Imidazopyridazines as potent inhibitors of Plasmodium falciparum calcium-dependent protein kinase 1 (PfCDPK1): Preparation and evaluation of pyrazole linked analogues^” (Bioorganic & Medicinal Chemistry Letters, 2013).
pEC50, pIC50: −log10 of the molar value. Like-named read-outs stand apart in the source and are kept apart here.

Columns and labels:
[1] = design: method as in PMID 23570789; conditions: % remaining after 30 min incubation with mouse liver microsomes; cited from earlier work
P. falciparum [2] = tested on: P. falciparum; design: method as in PMID 23570789; conditions: reference compound 2; read-out: Pf EC50; cited from earlier work
[3] = design: method as in PMID 23570789; conditions: % remaining after 30 min incubation with human liver microsomes; cited from earlier work
PfCDPK1 = PfCDPK1 (Plasmodium falciparum, UniProt P62344); experiment: PfCDPK1 enzyme inhibition; format: biochemical; conditions: for LLE: LLE = pIC50 − m Log D
P. falciparum [4] = experiment: P. falciparum parasite growth assay (FACS, hydroethidine); format: cell-based, Plasmodium falciparum; conditions: in vitro parasite growth, compounds added 24 h post-invasion, cells recovered 48 h later; for pEC50: Plasmodium falciparum, read-out: Pf EC50
Experimental: [12] P. falciparum EC50 values were measured using an in vitro model of malaria parasite growth. Compounds were diluted into 2% DMSO and added to parasites 24 h post-invasion in a 96-well plate and incubated under static conditions. Cells were recovered 48 h later and processed for FACS analysis using hydroethidine to stain parasite DNA. Data was acquired using a Guava easyCyte Plus flow cytometer with ExpressPro software. Growth inhibition was calculated using the following formula: % growth inhibition = (1 − [parasitaemia of culture/parasitaemia of control culture]) × 100.

[5] = Microsomal turnover, human liver microsomes; format: in vitro ADME; conditions: % remaining after 30 min, 1 μM compound
Experimental: Microsomal turnover data was obtained using either human liver microsomes (HLM) or mouse liver microsomes (MLM) obtained from BD Biosciences. The compounds are pre-incubated at 37 °C for 5 minutes with the microsomes and the reaction was initiated by adding an equal volume of NADPH generating solution, also obtained from BD Biosciences. The final compound concentration in the incubation is 1 μM, and the microsomal protein concentration is 0.5 mg/ml for HLM and 0.2 mg/ml for MLM. A sample is taken at t=0 and quenched with 2x volume of ice-cold methanol containing an internal standard reference compound (carbamazepine). […] The samples were centrifuged at 10000 rpm for 10 minutes and the supernatant taken for analysis in triplicate by LC-MS/MS (Agilent Technologies G6410 series, triple quadrupole with MM-ESI ion source) using optimised multiple reaction monitoring (MRM) scans and a standard column gradient on an Acquity UPLC BEH C8 1.7μm column, running acetonitrile and water with 0.05% acetic acid as the mobile phase. […] Verapamil is used as the standard compound for this assay.

[6] = LogD shake flask (octanol/PBS); format: physicochemical; conditions: measured log D
Experimental: LogD measurements were carried out using the shake flask method. Compound was diluted from 10 mM DMSO stock solution into an eppendorf containing equal amounts of octanol and phosphate buffered saline (PBS) to give a final concentration of 100 μM. The tubes were shaken for 12 hours, centrifuged at 10000 rpm for 10 minutes and samples taken from the octanol and PBS layers. The samples from both layers were analysed in triplicate by LC-MS/MS (Agilent Technologies G6410 series, triple quadrupole with MM-ESI ion source) using optimised multiple reaction monitoring (MRM) scans and a standard column gradient on an Acquity UPLC BEH C8 1.7 μm column, running acetonitrile and water with 0.05% Acetic Acid as the mobile phase. The ratios of areas of the peaks were used to calculate the LogD in accordance with the equation: LogD = Log10(Area-TL/Area BL)

[7] = Microsomal turnover, mouse liver microsomes; format: in vitro ADME; conditions: % remaining after 30 min, 1 μM compound
Experimental: Microsomal turnover data was obtained using either human liver microsomes (HLM) or mouse liver microsomes (MLM) obtained from BD Biosciences. The compounds are pre-incubated at 37 °C for 5 minutes with the microsomes and the reaction was initiated by adding an equal volume of NADPH generating solution, also obtained from BD Biosciences. The final compound concentration in the incubation is 1 μM, and the microsomal protein concentration is 0.5 mg/ml for HLM and 0.2 mg/ml for MLM. A sample is taken at t=0 and quenched with 2x volume of ice-cold methanol containing an internal standard reference compound (carbamazepine). The reaction is agitated at 37 °C for 40 minutes (HLM) and 30 minutes (MLM) when a further sample was taken and quenched in an identical fashion. The samples were centrifuged at 10000 rpm for 10 minutes and the supernatant taken for analysis in triplicate by LC-MS/MS (Agilent Technologies G6410 series, triple quadrupole with MM-ESI ion source) using optimised multiple reaction monitoring (MRM) scans and a standard column gradient on an Acquity UPLC BEH C8 1.7μm column, running acetonitrile and water with 0.05% acetic acid as the mobile phase. The % turnover is obtained by calculating the percentage difference of the peak areas, normalised to the internal standard, at t=0 and t=40 (for human) or t=30 (for mouse). Verapamil is used as the standard compound for this assay.

[8] = PAMPA passive permeability; format: in vitro ADME; conditions: 5 hours at room temperature
Experimental: PAMPA assays were carried out using a 96 well BD Biosciences pre-coated PAMPA plate with 0.4 μm polyvinylidene fluoride filter plate, precoated with structured layers of phospholipids. […] The compound solution was placed in the lower ‘Donor’ well of the plate and the upper ‘Acceptor’ well of the plate was filled with PBS:DMSO 98:2 buffer containing no compound following which the plates was assembled then incubated for 5 hours at room temperature. After incubation the Donor and Acceptor wells were sampled into flat UV bottomed plates and a six fold 1:2 dilution series created for each compound starting at the appropriate top concentration for each compound. The UV absorbance for these solutions was read across 230-400 nm at 1 nm intervals using a TECAN Safire II plate reader and a suitable UV wavelength chosen around the UV maximum of each compound. This was used to calculate the concentration in the Donor and Acceptor wells for each compound. The compound permeability Papp (nm s^-1) and % mass retention was then calculated for each compound in accordance with the following equations:
Ceq = [CD(t)* VD+ CA(t)*VA]/(VD+VA)
% mass retention = 1 – [CD(t)*VD + CA(t)*VA]/(C0*VD)]
A = Filter Area, VD = Donor Well Volume, VA = Acceptor Well Volume, t = incubation time (secs), CA(t) = Acceptor concentration at time t, CD(t) = Donor concentration at time t, C0 = Initial Donor concentration
No result was reported for compounds where % mass retention exceeded 50%.

[9] = molecular target: 73-member human kinase panel; experiment: Kinase selectivity profiling against human kinase panel; format: biochemical; conditions: 73-member human kinase panel at 1 μM concentration; green <50%, orange 50–80%, red >80% inhibition in Figure 2
Description: They also display key ADME properties which serve to complement analogues such as 2, where a 6-membered aryl or heteroaryl ring linker had been used (Table 5). As expected, the pyrazole linker has contributed to lowering log D in these new analogues, and perhaps more importantly has promoted a significant increase in ligand lipophilic efficiency (LLE)[22] as compared to compounds such as 2. This parameter is well-known to offer a useful guide to potency and lipophilicity during the progression of chemical series from hits towards leads. In addition, we observed promising kinase selectivity profiles for key examples on screening against a human kinase panel at 1 μM concentration,[23] as shown in Figure 2. The aryl pyrazoles described here thus represent a useful additional possibility for progressing towards alternative early lead compounds with good development characteristics.
[23] Kinase selectivity profiling was carried out by the National Centre for Protein Kinase Profiling at the MRC Protein Phosphorylation Unit (University of Dundee, UK).

Sequence of PfCDPK1 (P62344 whole entry): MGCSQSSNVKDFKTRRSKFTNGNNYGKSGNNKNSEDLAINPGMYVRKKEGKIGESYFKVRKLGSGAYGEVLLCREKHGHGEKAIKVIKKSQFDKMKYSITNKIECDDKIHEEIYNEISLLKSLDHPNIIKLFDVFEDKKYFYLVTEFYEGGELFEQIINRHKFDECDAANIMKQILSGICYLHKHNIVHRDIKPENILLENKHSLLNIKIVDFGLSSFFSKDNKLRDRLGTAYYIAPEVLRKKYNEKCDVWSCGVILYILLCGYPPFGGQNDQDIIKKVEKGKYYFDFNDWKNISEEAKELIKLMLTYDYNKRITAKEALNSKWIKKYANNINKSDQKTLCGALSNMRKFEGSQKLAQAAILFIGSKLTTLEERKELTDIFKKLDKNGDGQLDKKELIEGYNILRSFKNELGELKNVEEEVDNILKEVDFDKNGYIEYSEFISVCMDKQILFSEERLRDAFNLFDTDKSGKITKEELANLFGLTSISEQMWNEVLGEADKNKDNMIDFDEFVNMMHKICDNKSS

| Structure (SMILES) | MLM % rem [1] [%] | pEC50 (P. falciparum [2]) | HLM % rem [3] [%] | pIC50 (PfCDPK1) | pEC50 (P. falciparum [4]) | Pf EC50 (P. falciparum [4]) | HLM % rem [5] [%] | logD at 12 h, 100 µM [6] | MLM % rem [7] [%] | LLE (PfCDPK1) | LE (ligand efficiency) (PfCDPK1; from PfCDPK1 potency) | Papp at 5 h, up to 200 µM [8] [×10⁻⁶ cm/s] | Kinases inhibited [9] |
| --- | --- | --- | --- | --- | --- | --- | --- | --- | --- | --- | --- | --- | --- |
| CC(C)CCNc1ccc(-c2cnc3ccc(NC4CCN(C)CC4)nn23)cn1 [Compound 2] | 85 | 6.40 | 63 | – | – | – | – | – | – | – | – | – | – |
| Cc1nn(-c2ccccc2)cc1-c1cnc2ccc(NC3CCN(C)CC3)nn12 [Compound 11] | – | – | – | 5.44 | – | – | – | – | – | – | – | – | – |
| c1ccc(-n2cc(-c3cnc4ccc(NC5CCNCC5)nn34)cn2)cc1 [Compound 12] | – | – | – | 7.37 | 6.01 | sub-micromolar | 81 | 1.8 | 74 | 4.5 | 0.37 | 2.3 | PRK2, PKD1, MSK1, MNK1, SmMLCK, CHK1, CHK2, Aurora B, NUAK1, PIM1, GCK, MINK1, MLK1, MLK3, IRAK4, SRC, LCK, YES1, EPH-A2, FGF-R1, HER4, VEG-FR |
| CN1CCC(Nc2ccc3ncc(-c4cnn(-c5ccccc5F)c4)n3n2)CC1 [Compound 16] | – | – | – | 7.12 | 6.25 | – | – | 3.4 | – | – | – | – | – |
| CN1CCC(Nc2ccc3ncc(-c4cnn(-c5ncc(F)cn5)c4)n3n2)CC1 [Compound 25] | – | – | – | 6.31 | – | – | – | 2 | – | – | – | – | – |
| CN1CCC(Nc2ccc3ncc(-c4cnn(-c5cnccn5)c4)n3n2)CC1 [Compound 26] | – | – | – | 7.51 | 6.44 | – | 66 | 2.2 | 51 | – | – | 0.05 | – |
| Clc1ccc2ncc(Br)n2n1 [Compound 27] | – | – | – | – | – | – | – | – | – | – | – | – | RSK1, PRK2, CHK1, MELK, NUAK 1, PIM1, MST2, GCK, MINK1, MLK1, MLK3, IRAK4, SRC, LCK, CSK, YES1, BTK, EPH-A2, EPH-B3, HER4, VEG-FR |
| N[C@H]1CC[C@H](Nc2ccc3ncc(-c4cnn(-c5ccc(F)cc5)c4)n3n2)CC1 [Compound 29] | – | – | – | 7.25 | 6.58 | – | 80 | 1.9 | 84 | 5.3 | – | 4.3 | – |
| Fc1ccc(-n2cc(-c3cnc4ccc(N[C@H]5CC[C@H](N6CCCC6)CC5)nn34)cn2)cc1 [Compound 30] | – | – | – | 6.89 | 6.43 | – | 42 | 2.8 | 66 | – | – | 10.4 | – |
| CN1CCC(Oc2ccc3ncc(-c4cnn(-c5ccc(F)cc5)c4)n3n2)CC1 [Compound 31] | – | – | – | 6.74 | – | – | 61 | 2.6 | 38 | – | – | 21.4 | – |
| Fc1ccc(-n2cc(-c3cnn4ccc(C5CCCNC5)nc34)cn2)cc1 (centres unmarked) [Compound 34] | – | – | – | 6.75 | 5.42 | – | 80 | 1.4 | 56 | – | – | 21.7 | – |
| CN1CCCC(c2ccn3ncc(-c4cnn(-c5ccc(F)cc5)c4)c3n2)C1 (centres unmarked) [Compound 35] | – | – | – | 6.42 | 5.45 | – | 55 | 2.5 | 33 | – | – | – | – |
| CN1CCC(Nc2ccc3ncc(-c4cnn(-c5ccc(C#N)cc5)c4)n3n2)CC1 [Compound 36] | – | – | – | 6.07 | – | – | 79 | 1.9 | 59 | – | – | – | RSK1, ROCK2, PRK2, MNK1, MNK2, SmMLCK, PHK, CHK1, MARK3, BRSK2, MELK, NUAK1, CK1, CK2, DRYK1A, PIM1, PAK4, MST2, GCK, MINK1, MLK1, MLK3, IRAK4, SRC, YES1, BTK, EPH-A2, HER4, VEG-FR |
| CN1CCC(Nc2ccc3ncc(-c4cnn(-c5cccc(C#N)c5)c4)n3n2)CC1 [Compound 37] | – | – | – | 6.72 | 6.59 | – | 70 | 2.7 | 59 | – | – | – | – |
